In publication PMC7215574, “Development of Thiazolidinones as Fungal Carbonic Anhydrase Inhibitors” (International Journal of Molecular Sciences, 2020):
pKi: −log10 of the molar value. ≈ marks a conversion by molar mass, not a printed value. Like-named read-outs stand apart in the source and are kept apart here.

Experiments:
[1] = tested on: T1, Candida sake C. sakè 3 strains; assay: microbe, parasite or virus in culture; parameters: species or system clinical Candida isolates; CLSI broth microdilution MIC, Sabouraud dextrose broth, 35 °C, visual complete growth inhibition; details: Fermentozyma sake, 24 h; read-out: Tested Fungi (MIC Values μg/mL) / C. sakè 3 strains
T1 construct: 3 clinical isolates
Experimental: (§1) The in vitro antifungal activities were determined by the broth microdilution method with sabouraud dextrose broth (BBL Microbiology Systems, Cockeysville, MD, USA), as recommended by the by the CLSI [43]. Ninety-six-well polystyrene microtitre plates containing serial dilutions of each compound were inoculated with each microorganism to yield the appropriate density (1–5 × 10^3 cells/mL) in a 100-μL final volume. Each plate included (i) fungi without the addition of the compound, (ii) just the medium, and (iii) just the compound. Topical and systemic antifungal reference drugs, clotrimazole and fluconazole, were inserted in the experiment. The plates were incubated for 24 h at 35 °C. […] Three independent experiments were performed in triplicate. The antimicrobial activity of these thiazolidinones was evaluated versus 24 clinical Gram-positive (S. aureus and S. epidermidis) and Gram-negative (E. coli and Enterobacter spp.) microorganisms. The antifungal activity of these derivatives was then tested versus 16 clinical fungal isolates belonging to the most relevant Candida spp. (C. albicans, C. tropicalis, C. parapsilosis, C. sakè, and C. glabrata). Prior to testing, each isolate was cultured on a selective medium to ensure purity and optimal growth, as previously reported. The isolates were routinely identified by the morphological aspects of colonies and by biochemical identification. The used clinical isolates were collected from specimens of patients at the ‘Azienda Policlinico Umberto I’ (Sapienza University of Rome) and were obtained from hematology/oncology and surgery departments, which also included an intensive care unit. In particular, the samples were isolated from the upper and lower respiratory tract, blood, and indwelling venous catheters; the isolates were identified by conventional methodologies. Participating subjects gave their written informed consent for this study.

C. glabrata 3 strains [2] = tested on: T2, C. glabrata 3 strains; assay: microbe, parasite or virus in culture; parameters: species or system clinical Candida isolates; CLSI broth microdilution MIC, Sabouraud dextrose broth, 35 °C, visual complete growth inhibition; details: Nakaseomyces glabratus, 24 h, read-out: Tested Fungi (MIC Values μg/mL) / C. glabrata 3 strains
T2 construct: 3 clinical isolates
Experimental: as §1

[3] = tested on: T3, C. parapsilosis 2 strains; assay: microbe, parasite or virus in culture; parameters: species or system clinical Candida isolates; CLSI broth microdilution MIC, Sabouraud dextrose broth, 35 °C, visual complete growth inhibition; details: Lodderomyces parapsilosis, 24 h, read-out: Tested Fungi (MIC Values μg/mL) / C. parapsilosis 2 strains
T3 construct: 2 clinical isolates
Experimental: as §1

C. tropicalis 3 strains [4] = tested on: T4, C. tropicalis 3 strains; assay: microbe, parasite or virus in culture; parameters: species or system clinical Candida isolates; CLSI broth microdilution MIC, Sabouraud dextrose broth, 35 °C, visual complete growth inhibition; details: Candida tropicalis, 24 h, read-out: Tested Fungi (MIC Values μg/mL) / C. tropicalis 3 strains
T4 construct: 3 clinical isolates
Experimental: as §1

hCA I = molecular target: T5, hCA I (Homo sapiens, UniProt P00915); assay: stopped-flow CO2 hydrase assay; assay type: biochemical
T5 construct: gene CA1; recombinant, obtained in-house as previously reported
From the text: stopped-flow CO2 hydrase assay on hCA I

CgNce103 = molecular target: T6, CgNce103 (Nakaseomyces glabratus, UniProt Q6FTL6); assay: stopped-flow CO2 hydrase assay; assay type: biochemical
T6 construct: gene NCE103; recombinant, obtained in-house as previously reported; beta-class zinc enzyme
T6 sequence (Q6FTL6 1-219): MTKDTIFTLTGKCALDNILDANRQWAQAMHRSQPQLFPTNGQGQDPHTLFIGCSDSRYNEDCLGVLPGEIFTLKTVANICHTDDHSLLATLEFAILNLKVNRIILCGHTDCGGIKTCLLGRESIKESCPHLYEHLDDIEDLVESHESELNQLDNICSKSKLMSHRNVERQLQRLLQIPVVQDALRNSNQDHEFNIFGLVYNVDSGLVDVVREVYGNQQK

[5] = stopped-flow CO2 hydrase assay; assay type: biochemical, Homo sapiens; details: read-out: hCA I
C. albicans 5 strains = tested on: T7, C. albicans 5 strains; assay: microbe, parasite or virus in culture; parameters: species or system clinical Candida isolates; broth microdilution antifungal MIC, visual growth inhibition, CLSI; details: Candida albicans, 24 h, read-out: Tested Fungi (MIC Values μg/mL) / C. albicans 5 strains
T7 construct: 5 clinical isolates
Experimental: as §1

hCA II = molecular target: T8, hCA II (Homo sapiens, UniProt P00918); assay: stopped-flow CO2 hydrase assay; assay type: biochemical
T8 construct: gene CA2; recombinant, obtained in-house as previously reported
From the text: stopped-flow CO2 hydrase assay on hCA II

[6] = tested on: T1, Candida sake C. sakè 3 strains; assay: microbe, parasite or virus in culture; parameters: species or system clinical Candida isolates; broth microdilution antifungal MIC, visual growth inhibition, CLSI; details: Fermentozyma sake, 24 h; read-out: Tested Fungi (MIC Values μg/mL) / C. sakè 3 strains
Experimental: as §1

C. glabrata 3 strains [7] = tested on: T2, C. glabrata 3 strains; assay: microbe, parasite or virus in culture; parameters: species or system clinical Candida isolates; broth microdilution antifungal MIC, visual growth inhibition, CLSI; details: Nakaseomyces glabratus, 24 h, read-out: Tested Fungi (MIC Values μg/mL) / C. glabrata 3 strains
Experimental: as §1

C. tropicalis 3 strains [8] = tested on: T4, C. tropicalis 3 strains; assay: microbe, parasite or virus in culture; parameters: species or system clinical Candida isolates; broth microdilution antifungal MIC, visual growth inhibition, CLSI; details: Candida tropicalis, 24 h, read-out: Tested Fungi (MIC Values μg/mL) / C. tropicalis 3 strains
Experimental: as §1

T5 sequence (P00915 2-261): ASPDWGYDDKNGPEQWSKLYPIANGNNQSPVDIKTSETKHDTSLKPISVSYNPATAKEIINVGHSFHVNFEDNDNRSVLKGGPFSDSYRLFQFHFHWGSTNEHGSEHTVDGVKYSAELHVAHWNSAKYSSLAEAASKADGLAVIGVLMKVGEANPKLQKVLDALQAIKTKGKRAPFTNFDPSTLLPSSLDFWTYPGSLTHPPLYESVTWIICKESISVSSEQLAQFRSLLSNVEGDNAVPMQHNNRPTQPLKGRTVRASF

SMILES	MIC [1]	MIC (C. glabrata 3 strains [2])	MIC [3]	MIC (C. tropicalis 3 strains [4])	pKi (hCA I)	pKi (CgNce103)	pKi [5]	MIC (C. albicans 5 strains)	pKi (hCA II)	MIC [6]	MIC (C. glabrata 3 strains [7])	MIC (C. tropicalis 3 strains [8])
O=C(N/N=C1\SCC(=O)N1c1ccccc1F)C(O)c1ccccc1 (centres unmarked) [3a]	16 µg/mL (≈ 44.5 µM)	16 µg/mL (≈ 44.5 µM)	32 µg/mL (≈ 89 µM)	32 µg/mL (≈ 89 µM)	< 4.00	6.57	< 4.00	4 to 8 µg/mL (≈ 11.1 to 22.3 µM)	–	–	–	–
O=C(N/N=C1\SCC(=O)N1c1cccc(F)c1)C(O)c1ccccc1 (centres unmarked) [3b]	16 µg/mL (≈ 44.5 µM)	16 µg/mL (≈ 44.5 µM)	32 µg/mL (≈ 89 µM)	32 µg/mL (≈ 89 µM)	< 4.00	6.32	< 4.00	4 to 8 µg/mL (≈ 11.1 to 22.3 µM)	–	–	–	–
O=C(N/N=C1\SCC(=O)N1c1ccc(F)cc1)C(O)c1ccccc1 (centres unmarked) [3c]	16 µg/mL (≈ 44.5 µM)	16 µg/mL (≈ 44.5 µM)	32 µg/mL (≈ 89 µM)	32 µg/mL (≈ 89 µM)	< 4.00	6.42	–	4 to 8 µg/mL (≈ 11.1 to 22.3 µM)	4.12	–	–	–
O=C(N/N=C1\SCC(=O)N1c1ccccc1Cl)C(O)c1ccccc1 (centres unmarked) [3d]	–	–	32 µg/mL (≈ 85.1 µM)	32 µg/mL (≈ 85.1 µM)	< 4.00	6.49	< 4.00	8 to 32 µg/mL (≈ 21.3 to 85.1 µM)	–	8 to 32 µg/mL (≈ 21.3 to 85.1 µM)	8 to 32 µg/mL (≈ 21.3 to 85.1 µM)	–
O=C(N/N=C1\SCC(=O)N1c1cccc(Cl)c1)C(O)c1ccccc1 (centres unmarked) [3e]	–	–	32 µg/mL (≈ 85.1 µM)	32 µg/mL (≈ 85.1 µM)	< 4.00	6.37	–	8 to 32 µg/mL (≈ 21.3 to 85.1 µM)	4.30	8 to 32 µg/mL (≈ 21.3 to 85.1 µM)	8 to 32 µg/mL (≈ 21.3 to 85.1 µM)	–
O=C(N/N=C1\SCC(=O)N1c1ccc(Cl)cc1)C(O)c1ccccc1 (centres unmarked) [3f]	16 µg/mL (≈ 42.6 µM)	–	16 µg/mL (≈ 42.6 µM)	32 µg/mL (≈ 85.1 µM)	< 4.00	6.29	–	4 to 8 µg/mL (≈ 10.6 to 21.3 µM)	4.20	–	4 to 8 µg/mL (≈ 10.6 to 21.3 µM)	–
O=C(N/N=C1\SCC(=O)N1c1ccccc1Br)C(O)c1ccccc1 (centres unmarked) [3g]	16 µg/mL (≈ 38.1 µM)	–	8 µg/mL (≈ 19 µM)	–	< 4.00	4.99	< 4.00	8 to 16 µg/mL (≈ 19 to 38.1 µM)	–	–	8 to 32 µg/mL (≈ 19 to 76.1 µM)	8 to 32 µg/mL (≈ 19 to 76.1 µM)
O=C(N/N=C1\SCC(=O)N1c1cccc(Br)c1)C(O)c1ccccc1 (centres unmarked) [3h]	16 µg/mL (≈ 38.1 µM)	–	8 µg/mL (≈ 19 µM)	–	< 4.00	6.09	–	8 to 16 µg/mL (≈ 19 to 38.1 µM)	4.25	–	8 to 32 µg/mL (≈ 19 to 76.1 µM)	8 to 32 µg/mL (≈ 19 to 76.1 µM)
O=C(N/N=C1\SCC(=O)N1c1ccc(Br)cc1)C(O)c1ccccc1 (centres unmarked) [3i]	16 µg/mL (≈ 38.1 µM)	–	16 µg/mL (≈ 38.1 µM)	16 µg/mL (≈ 38.1 µM)	< 4.00	6.06	–	8 to 16 µg/mL (≈ 19 to 38.1 µM)	4.32	–	4 to 8 µg/mL (≈ 9.52 to 19 µM)	–
Cc1ccccc1N1C(=O)CS/C1=N\NC(=O)C(O)c1ccccc1 (centres unmarked) [3j]	–	–	16 µg/mL (≈ 45 µM)	32 µg/mL (≈ 90 µM)	–	–	–	8 to 16 µg/mL (≈ 22.5 to 45 µM)	–	8 to 32 µg/mL (≈ 22.5 to 90 µM)	8 to 32 µg/mL (≈ 22.5 to 90 µM)	–
Cc1cccc(N2C(=O)CS/C2=N\NC(=O)C(O)c2ccccc2)c1 (centres unmarked) [3k]	–	–	16 µg/mL (≈ 45 µM)	32 µg/mL (≈ 90 µM)	< 4.00	6.39	–	8 to 32 µg/mL (≈ 22.5 to 90 µM)	4.10	8 to 32 µg/mL (≈ 22.5 to 90 µM)	8 to 32 µg/mL (≈ 22.5 to 90 µM)	–
Cc1ccc(N2C(=O)CS/C2=N\NC(=O)C(O)c2ccccc2)cc1 (centres unmarked) [3l]	–	–	32 µg/mL (≈ 90 µM)	32 µg/mL (≈ 90 µM)	< 4.00	5.20	< 4.00	8 to 32 µg/mL (≈ 22.5 to 90 µM)	–	8 to 32 µg/mL (≈ 22.5 to 90 µM)	8 to 32 µg/mL (≈ 22.5 to 90 µM)	–
COc1ccc(N2C(=O)CS/C2=N\NC(=O)C(O)c2ccccc2)cc1 (centres unmarked) [3m]	–	–	32 µg/mL (≈ 86.2 µM)	32 µg/mL (≈ 86.2 µM)	< 4.00	6.41	< 4.00	8 to 32 µg/mL (≈ 21.5 to 86.2 µM)	–	8 to 32 µg/mL (≈ 21.5 to 86.2 µM)	8 to 32 µg/mL (≈ 21.5 to 86.2 µM)	–
